Measurements published in publication PMC5927461, “Activation of host transient receptor potential (TRP) channels by praziquantel stereoisomers” (PLoS Neglected Tropical Diseases, 2018).

Assays:
[1] = test system: untransfected HEK293 cells; assay: Confocal Ca2+ imaging in untransfected HEK293 cells (control); format: cell-based, human; conditions: menthol 300μM, ±PZQ 100μM, ACh 100μM, capsaicin 1μM, AITC 100μM
Description: (§1) HEK293 cells (ATCC CRL-1573.3) were cultured in DMEM supplemented with 10% fetal bovine serum (FBS), penicillin (100 units/ml), streptomycin (100 μg/ml), and L-glutamine (290 μg/ml). Cells were transiently transfected (Lipofectamine LTX, Thermo Fisher) at a density of 2x10^6 cells per T-25 cell-culture flask with TRP channel cDNA. For Ca^2+ imaging assays, HEK293 cells were seeded onto 8-chambered coverglass slides (Thermo Fisher, 115411PK), at a density of 1x10^4 cells one day prior to imaging. Cells were washed twice with HBSS, and incubated with fluo-4-AM (4μM), pluronic F127 (0.4%) and probenecid (2.5mM) for 25 minutes at room temperature. Cells were then washed twice with HBSS, and left at room temperature (30 minutes) for de-esterification. Dishes were mounted on an Olympus IX81 microscope and fluorescence changes (λex = 488nM, λem = 513±15nm bandpass filter) monitored using a Yogokawa spinning disk confocal (CSU-X-M1N) and an Andor iXon Ultra 888 EMCCD camera.

hTRPA1 [2] = target: T1, hTRPA1 (Homo sapiens, UniProt O75762); assay: Single cell confocal Ca2+ imaging (fluo-4) in transfected HEK293 cells; format: cell-based; parameters: host or cells: HEK293 (ATCC CRL-1573.3), transient; conditions: for Ca2+ response in hTRPA1 expressing cells: 100μM
Text: (§2) Human TRPM8 cDNA was a VersaClone from R&D Systems (RDC0188). Plasmids encoding human TRPA1 and human TRPV1 cDNA were purchased from DNASU plasmid repository (HsCD00080227 and HsCD00081472, respectively). The TRP channel coding sequences were subcloned into pCS2+ to introduce a COOH-term myc tag using the InFusion HD method (Clontech), HindIII/XhoI restriction enzymes (NEB) and the following primers: TRPM8 F–TGGGGACGTCGGAGC-aagctt-[…]; TRPM8 R–AAATCGATGGGATGC-ctcgag-[…]; TRPA1 F-GGACGTCGGAGC-aagctt- atgaagcgcagcctgagg; TRPA1 R-TCGATGGGATGC-ctcgag-[…]; TRPV1 F–GGACGTCGGAGC-aagctt-[…]; TRPV1 R-TCGATGGGATGC-ctcgag-cttctccccggaagcgg (where upper case specifies vector-specific sequences, italics indicate restriction sites, and lower case indicates TRP channel specific sequences). Primers are listed in a 5’ to 3’ orientation.
as §1

[3] = test system: mesenteric vessels isolated from a TRPM8 knockout mouse; assay: Wire myography, KPSS-contracted mesenteric vessels from TRPM8 knockout mice; conditions: TRPM8 KO; menthol 300μM, icilin 50μM, WS-12 50μM
[4] = test system: mouse mesenteric arteries; assay: Wire myography, mesenteric artery strips precontracted with high K+ (KPSS); conditions: for relaxation of KPSS-contracted vessel strips by TRPM8 agonists: wild type, menthol 300μM, icilin 50 μM, WS-12 50μM
hTRPM8 = hTRPM8 (Homo sapiens, UniProt Q7Z2W7); assay: Single cell confocal Ca2+ imaging (fluo-4) in transfected HEK293 cells; format: cell-based; parameters: host or cells: HEK293 (ATCC CRL-1573.3), transient; conditions: for cytoplasmic Ca2+ signal in TRPM8 expressing cells: menthol 300μM, ±PZQ 100μM, (R)-PZQ or (S)-PZQ 50μM
Text: as §2, §1

TRPV1 = TRPV1 (Homo sapiens, UniProt Q8NER1); assay: as above; format: cell-based; parameters: host or cells: HEK293 (ATCC CRL-1573.3), transient
Text: as §2, §1

hTRPC3 = target: T2, hTRPC3 (Homo sapiens, UniProt Q13507); assay: TRP channel panel primary screen (membrane potential dye, stable HEK line); format: cell-based; conditions: 0.3-300μM; effects over the micromolar range
T2 sequence (Q13507 1-921): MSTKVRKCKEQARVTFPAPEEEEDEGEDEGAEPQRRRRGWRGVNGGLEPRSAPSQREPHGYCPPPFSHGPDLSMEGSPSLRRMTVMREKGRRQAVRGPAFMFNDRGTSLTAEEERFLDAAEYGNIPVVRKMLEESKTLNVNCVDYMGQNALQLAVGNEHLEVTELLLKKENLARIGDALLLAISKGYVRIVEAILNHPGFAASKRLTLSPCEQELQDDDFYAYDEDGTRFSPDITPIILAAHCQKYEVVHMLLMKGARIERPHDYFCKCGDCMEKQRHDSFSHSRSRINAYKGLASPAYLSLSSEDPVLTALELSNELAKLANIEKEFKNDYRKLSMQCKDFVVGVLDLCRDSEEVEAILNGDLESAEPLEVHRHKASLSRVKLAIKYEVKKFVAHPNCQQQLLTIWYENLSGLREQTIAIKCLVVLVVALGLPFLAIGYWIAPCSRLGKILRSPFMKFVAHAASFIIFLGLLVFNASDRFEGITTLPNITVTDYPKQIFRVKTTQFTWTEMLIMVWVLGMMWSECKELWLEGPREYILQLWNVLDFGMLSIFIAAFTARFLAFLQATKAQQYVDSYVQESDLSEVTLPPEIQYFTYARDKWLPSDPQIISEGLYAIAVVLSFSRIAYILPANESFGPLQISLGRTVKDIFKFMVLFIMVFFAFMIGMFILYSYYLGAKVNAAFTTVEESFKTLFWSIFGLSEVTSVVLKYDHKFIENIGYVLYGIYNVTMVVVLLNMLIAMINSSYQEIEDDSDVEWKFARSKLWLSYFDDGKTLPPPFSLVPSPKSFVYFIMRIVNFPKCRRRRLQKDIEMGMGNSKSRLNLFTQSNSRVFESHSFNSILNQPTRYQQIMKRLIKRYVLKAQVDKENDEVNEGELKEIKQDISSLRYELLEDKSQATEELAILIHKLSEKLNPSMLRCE
Description: (§3) ±PZQ, (R)-PZQ and (S)-PZQ were screened against a panel of 17 human TRP channels (SB Drug Discovery, Glasgow). For all hTRPs, except for TRPM5, individual channel constructs were stably expressed in HEK cell lines. TRMP5 was expressed in a stable CHO cell line. In preparation for the assays, cells were trypsinized, counted and seeded (50,000 cells/well) in black, clear-bottomed 96 well plates and incubated overnight. The following day, cells were loaded with a fluorescent indicator (FLIPR Calcium 5 Assay kit for TRPA1, TRPV1, TRPV2, TRPV3, TRPV4, TRPV5, TRPC1, TRPM2, TRPM3 and TRPM8, or a membrane potential dye (FLIPR Membrane Potential Red Assay Kit for TRPC3, TRPC4, TRPC5, TRPC6, TRPC7, TRPM4 and TRPM5) prepared according to the manufacturer’s instructions in HEPES buffered Hank’s balanced salt solution (HBSS). Dye solution (10μl) was added to appropriate wells and incubated at 37°C for 1 hour. All assays were performed at room temperature. Compounds were tested at 0.3, 1, 3, 10, 30, 100μM and 300μM in triplicate in both agonist and antagonist mode to determine EC50 and IC50 values, which were compared with reference compounds. Compounds were screened at a final DMSO concentration of 0.5%. Plates were screened using a Flexstation (Molecular Devices, FX01138), monitoring fluorescence values every ~1.52 seconds. For ‘agonist mode’ testing, 10μl of the appropriate test compound, or standard agonist, was added after 20 seconds and fluorescence monitored for 2 minutes at λex = 485nm, λem = 525nm for Ca^2+ imaging and λex = 530nm, λem = 565nm for membrane potential measurements. For ‘antagonist mode’ testing, test compounds and standard inhibitors were added to appropriate wells and incubated for 10 minutes at room temperature prior to addition of standard agonist compound.

hTRPC7 = target: T3, hTRPC7 (Homo sapiens, UniProt Q9HCX4); assay: as above; format: cell-based; conditions: 0.3-300μM; effects over the micromolar range
T3 sequence (Q9HCX4 1-862): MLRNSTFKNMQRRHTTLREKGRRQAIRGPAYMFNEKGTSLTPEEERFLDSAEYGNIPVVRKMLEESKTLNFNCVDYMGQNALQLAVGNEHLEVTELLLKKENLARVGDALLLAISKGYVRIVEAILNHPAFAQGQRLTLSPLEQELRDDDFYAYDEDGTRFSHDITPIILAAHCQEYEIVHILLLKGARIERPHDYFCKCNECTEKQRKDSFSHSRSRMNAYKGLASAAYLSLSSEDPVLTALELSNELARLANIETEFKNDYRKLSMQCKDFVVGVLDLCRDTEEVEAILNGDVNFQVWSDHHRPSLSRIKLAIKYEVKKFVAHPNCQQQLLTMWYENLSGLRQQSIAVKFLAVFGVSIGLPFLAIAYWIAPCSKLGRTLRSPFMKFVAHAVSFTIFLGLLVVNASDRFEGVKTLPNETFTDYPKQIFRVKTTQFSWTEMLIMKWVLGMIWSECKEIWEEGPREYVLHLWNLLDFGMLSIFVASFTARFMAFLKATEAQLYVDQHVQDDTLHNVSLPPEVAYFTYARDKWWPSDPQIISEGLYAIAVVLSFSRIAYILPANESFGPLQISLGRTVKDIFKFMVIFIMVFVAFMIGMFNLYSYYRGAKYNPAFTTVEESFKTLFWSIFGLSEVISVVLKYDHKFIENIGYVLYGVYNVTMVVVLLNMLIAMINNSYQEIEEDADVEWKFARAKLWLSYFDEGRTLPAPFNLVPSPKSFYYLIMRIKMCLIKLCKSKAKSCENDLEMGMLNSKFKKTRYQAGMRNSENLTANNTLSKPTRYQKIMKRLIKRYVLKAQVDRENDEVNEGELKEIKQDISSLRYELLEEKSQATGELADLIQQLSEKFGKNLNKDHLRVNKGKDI
Description: as §3

hTRPA1 [5] = target: T1, hTRPA1; assay: TRP channel panel primary screen (FLIPR Calcium 5, stable HEK line); format: cell-based; conditions: 0.3-300μM; effects over the micromolar range
Description: as §3

T1 sequence (O75762 whole entry, the tested form may be a part): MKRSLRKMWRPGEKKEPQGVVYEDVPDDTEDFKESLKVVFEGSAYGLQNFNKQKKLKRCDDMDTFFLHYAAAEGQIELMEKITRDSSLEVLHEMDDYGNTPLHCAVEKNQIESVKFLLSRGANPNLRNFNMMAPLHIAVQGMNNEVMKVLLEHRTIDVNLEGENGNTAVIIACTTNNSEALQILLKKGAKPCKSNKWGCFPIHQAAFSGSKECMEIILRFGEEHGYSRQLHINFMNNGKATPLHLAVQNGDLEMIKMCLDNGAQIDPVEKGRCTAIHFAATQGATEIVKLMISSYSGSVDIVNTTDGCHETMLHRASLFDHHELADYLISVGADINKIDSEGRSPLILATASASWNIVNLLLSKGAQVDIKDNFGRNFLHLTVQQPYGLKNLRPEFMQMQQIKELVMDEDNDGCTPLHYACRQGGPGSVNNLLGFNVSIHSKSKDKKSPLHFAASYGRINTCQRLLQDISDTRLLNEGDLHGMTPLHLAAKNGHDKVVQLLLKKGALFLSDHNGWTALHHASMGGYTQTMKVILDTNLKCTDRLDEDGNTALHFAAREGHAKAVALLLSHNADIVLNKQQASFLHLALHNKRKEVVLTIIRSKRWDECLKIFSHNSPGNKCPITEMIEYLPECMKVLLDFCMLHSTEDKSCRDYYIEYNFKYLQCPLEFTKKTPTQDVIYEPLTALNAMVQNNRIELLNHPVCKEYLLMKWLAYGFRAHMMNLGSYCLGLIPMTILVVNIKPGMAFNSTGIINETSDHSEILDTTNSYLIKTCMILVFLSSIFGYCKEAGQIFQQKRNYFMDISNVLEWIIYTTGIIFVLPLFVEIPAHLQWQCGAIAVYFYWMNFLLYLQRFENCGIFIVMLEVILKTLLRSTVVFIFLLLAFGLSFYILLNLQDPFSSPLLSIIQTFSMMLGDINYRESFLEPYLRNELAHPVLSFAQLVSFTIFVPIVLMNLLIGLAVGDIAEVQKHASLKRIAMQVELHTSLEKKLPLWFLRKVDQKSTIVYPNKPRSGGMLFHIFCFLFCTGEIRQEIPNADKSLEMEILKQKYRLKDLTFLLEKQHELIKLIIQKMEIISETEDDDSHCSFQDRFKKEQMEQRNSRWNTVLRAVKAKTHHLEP
hTRPM8, sequence (Q7Z2W7 whole entry): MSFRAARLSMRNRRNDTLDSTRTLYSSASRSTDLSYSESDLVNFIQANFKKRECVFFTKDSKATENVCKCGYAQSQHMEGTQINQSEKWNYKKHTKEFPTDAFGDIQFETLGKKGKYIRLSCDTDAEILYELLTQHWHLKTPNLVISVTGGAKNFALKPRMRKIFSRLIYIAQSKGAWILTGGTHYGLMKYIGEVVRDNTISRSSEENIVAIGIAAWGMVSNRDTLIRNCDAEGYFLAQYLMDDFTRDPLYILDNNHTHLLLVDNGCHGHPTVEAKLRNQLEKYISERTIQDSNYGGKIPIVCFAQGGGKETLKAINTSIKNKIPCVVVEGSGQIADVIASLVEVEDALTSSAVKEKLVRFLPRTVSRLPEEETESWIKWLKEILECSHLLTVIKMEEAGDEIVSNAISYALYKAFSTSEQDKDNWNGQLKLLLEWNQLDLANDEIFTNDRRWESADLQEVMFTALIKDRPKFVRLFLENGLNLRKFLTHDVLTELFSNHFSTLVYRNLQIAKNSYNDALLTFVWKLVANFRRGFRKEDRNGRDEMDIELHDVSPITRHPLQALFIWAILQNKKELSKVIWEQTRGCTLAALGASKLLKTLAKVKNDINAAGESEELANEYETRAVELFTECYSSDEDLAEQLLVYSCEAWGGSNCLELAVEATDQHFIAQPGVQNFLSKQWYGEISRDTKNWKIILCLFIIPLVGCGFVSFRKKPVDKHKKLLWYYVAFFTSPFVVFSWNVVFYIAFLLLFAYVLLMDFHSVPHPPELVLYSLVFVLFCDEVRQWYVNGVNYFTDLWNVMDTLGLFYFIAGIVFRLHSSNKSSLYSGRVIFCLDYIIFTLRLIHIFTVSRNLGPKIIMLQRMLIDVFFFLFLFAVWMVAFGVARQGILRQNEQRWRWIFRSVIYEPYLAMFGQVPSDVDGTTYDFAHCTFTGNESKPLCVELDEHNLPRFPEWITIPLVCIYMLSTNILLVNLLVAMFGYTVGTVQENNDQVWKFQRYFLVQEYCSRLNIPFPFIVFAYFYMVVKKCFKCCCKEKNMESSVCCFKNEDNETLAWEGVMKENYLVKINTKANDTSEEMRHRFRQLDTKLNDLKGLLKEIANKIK
TRPV1, sequence (Q8NER1 whole entry): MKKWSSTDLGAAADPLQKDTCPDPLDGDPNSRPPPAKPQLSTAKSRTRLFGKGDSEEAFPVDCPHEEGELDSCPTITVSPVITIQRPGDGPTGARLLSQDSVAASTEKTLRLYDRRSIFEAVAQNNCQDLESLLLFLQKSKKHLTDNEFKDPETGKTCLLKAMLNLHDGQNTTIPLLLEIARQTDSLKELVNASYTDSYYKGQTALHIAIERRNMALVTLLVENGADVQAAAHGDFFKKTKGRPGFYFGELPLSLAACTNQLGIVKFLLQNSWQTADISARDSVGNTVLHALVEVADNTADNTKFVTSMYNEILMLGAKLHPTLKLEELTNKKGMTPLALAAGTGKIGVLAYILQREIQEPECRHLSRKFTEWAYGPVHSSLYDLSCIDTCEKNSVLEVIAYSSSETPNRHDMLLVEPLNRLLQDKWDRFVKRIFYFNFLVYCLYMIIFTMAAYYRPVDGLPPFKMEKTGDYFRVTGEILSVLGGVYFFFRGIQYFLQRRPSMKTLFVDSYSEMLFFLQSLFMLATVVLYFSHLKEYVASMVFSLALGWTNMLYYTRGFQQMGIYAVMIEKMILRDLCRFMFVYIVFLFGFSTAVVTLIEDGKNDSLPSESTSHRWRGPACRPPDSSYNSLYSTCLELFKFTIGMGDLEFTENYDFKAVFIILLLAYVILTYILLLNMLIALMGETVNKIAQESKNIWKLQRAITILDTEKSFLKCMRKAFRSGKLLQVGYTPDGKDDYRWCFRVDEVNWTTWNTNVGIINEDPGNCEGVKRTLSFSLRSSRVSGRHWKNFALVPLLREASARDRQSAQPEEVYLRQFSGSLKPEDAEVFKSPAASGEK

In the case of `C=CCN=C=S` [AITC, allyl isothiocyanate], the “Ca2+ response in untransfected HEK293 cells” value [1] is reported as “without effect” and the “Ca2+ response in hTRPA1 expressing cells” value (hTRPA1 [2]) is reported as “elevation of cytoplasmic Ca^2+”.

In the case of `CC1CCC(C(C)C)C(O)C1` (stereo not drawn) [menthol], the “vasorelaxant effect in TRPM8 KO background” value (“vasorelaxant effect” for short) [3] is reported as “persisted”, the “relaxation of KPSS-contracted vessel strips by TRPM8 agonists” value (from here on “relaxation”) [4] is reported as “completely relaxed” and the “Ca2+ response in untransfected HEK293 cells” value [1] is reported as “neither ±PZQ or menthol elevated cytoplasmic Ca^2+ levels”. For the same molecule, the “menthol-evoked Ca2+ signals in Ca2+-free media” value (hTRPM8; 300μM, Ca2+-free media) was “not observed” and the “cytoplasmic Ca2+ signal in TRPM8 expressing cells” value (hTRPM8) was “rapidly elevated cytoplasmic Ca^2+”.

`Cn1cnc2ncn(Cc3nc(CCc4ccc(Cl)cc4)no3)c(=O)c21` [AM-0902] was tested, and the “block of AITC-evoked Ca2+ elevation” value (hTRPA1 [2]; preincubation, 1μM) was “blocked” and the “block of ±PZQ-evoked Ca2+ responses” value (hTRPA1 [2]; preincubation, 1μM) was “blocked”.

`Cc1cccc(COc2ccccc2C(=O)N(CCCN)Cc2cccs2)c1` [AMTB] was tested, and the “block of Ca2+ transients evoked by (S)-PZQ or menthol” value (hTRPM8; AMTB 10μM added 30min before agonists) was “blocked”.

`CC(=O)OCC[N+](C)(C)C` [ACh, acetylcholine] was tested, and the “Ca2+ response in untransfected HEK293 cells” value [1] was “caused Ca^2+ transients”.

For `Oc1cc2c(cc1O)CN(C(=S)NCCc1ccc(Cl)cc1)CCC2` [capsazepine], the “block of capsaicin-evoked Ca2+ signals” value (TRPV1; capsazepine 10μM) was “blocked”.

For `COc1ccc(NC(=O)[C@@H]2C[C@H](C)CC[C@H]2C(C)C)cc1` [WS-12], the “vasorelaxant effect” value [3] was “persisted” and the “relaxation” value [4] was “completely relaxed”.

In the case of `O=C1NC(c2cccc([N+](=O)[O-])c2)=CCN1c1ccccc1O` [icilin], the “vasorelaxant effect” value [3] is reported as “persisted” and the “relaxation” value [4] is reported as “completely relaxed”.

`COc1cc(CNC(=O)CCCC/C=C/C(C)C)ccc1O` [capsaicin] was tested, and the “Ca2+ response in untransfected HEK293 cells” value [1] was “neither the addition of the TRPV1 agonist capsaicin (1μM) nor addition of ±PZQ evoked a Ca^2+ response” and the “Ca2+ signal in TRPV1 expressing cells” value (TRPV1; capsaicin 1μM, ±PZQ 100μM) was “evoked Ca^2+ signals”.

`O=C(C1CCCCC1)N1CC(=O)N2CCc3ccccc3[C@@H]2C1` [(R)-PZQ] was tested, and the “activity at hTRPC3 in primary screen” value (hTRPC3) was “activated”, the “activity at hTRPC7 in primary screen” value (hTRPC7) was “activated” and the “activity at hTRPA1 in primary screen” value (hTRPA1 [5]) was “activated”. For the same molecule, the “change in tension of KPSS-precontracted vessels” value ([4]; 50μM, bath application during KPSS-evoked contraction) was “initial, small contraction”, the “Ca2+ response in hTRPA1 expressing cells” value (hTRPA1 [2]) was “activation of hTRPA1” and the “cytoplasmic Ca2+ signal in TRPM8 expressing cells” value (hTRPM8) was “without effect”.
